Data published in EPA's ToxRefDB 2.

Key:
rat [1] = settings: Carcinogenicity, fischer, Oral, Feed, dose end: 105 week, group: systemic
rat [2] = settings: Subchronic oral toxicity in rodents, Fischer, Feed, dose end: 13 week, group: systemic
mouse [3] = settings: Multigenerational reproductive toxicity study, b6c3f1, Oral, Feed, dose end: 2 generation
mouse [4] = settings: Subchronic oral toxicity in rodents, b6c3f1, Feed, dose end: 13 week, group: systemic
rat [5] = settings: Subchronic oral toxicity in rodents, fischer, Feed, dose end: 13 week, group: systemic
mouse [6] = settings: Carcinogenicity, b6c3f1, Oral, Feed, dose end: 2 year, group: systemic
rat [7] = settings: Combined chronic toxicity/carcinogenicity, fischer, Oral, Feed, dose end: 2 year, group: systemic
mouse [8] = settings: Carcinogenicity, swiss albino, Oral, Feed, dose end: 18 month, group: systemic
dog [9] = settings: Chronic toxicity; beagle; Oral; Capsule; dose end: 12 month; group: systemic; systemic / clinical chemistry / urea nitrogen / urea + systemic / in life observation / clinical signs / altered breathing rate + systemic…
mouse [10] = settings: Carcinogenicity, cd1, Oral, Feed, dose end: 18 month, group: systemic
rat [11] = settings: Reproduction/developmental toxicity screening test, sprague dawley, Oral, Water, dose end: 1 generation, group: parental
mouse [12] = settings: Combined chronic toxicity/carcinogenicity, b6c3f1, Oral, Water, dose end: 105 week, group: systemic
rat [13] = settings: Subchronic oral toxicity in rodents, other, Gavage/Intubation, dose end: 90 day, group: systemic
rat [14] = settings: Combined chronic toxicity/carcinogenicity, fischer, Oral, Water, dose end: 105 week, group: systemic
mouse [15] = settings: Subchronic oral toxicity in rodents, b6c3f1, Water, dose end: 14 week, group: systemic
rat [16] = settings: Reproduction/developmental toxicity screening test; sprague dawley; Oral; Water; dose end: 1 PND; group: parental; systemic / in life observation / water consumption / water consumption
rat [17] = settings: Subchronic oral toxicity in rodents, sprague dawley, Water, dose end: 13 week, group: systemic
rat [18] = settings: Subchronic oral toxicity in rodents, fischer, Water, dose end: 14 week, group: systemic
rat [19] = settings: Subchronic oral toxicity in rodents, other, Gavage/Intubation, dose end: 90 day, group: systemic; remark: listed apart in the source
dog [20] = settings: Subchronic oral toxicity in nonrodent, beagle, Capsule, dose end: 90 day, group: systemic
mouse [21] = settings: Carcinogenicity; b6c3f1; Oral; Feed; dose end: 2 year; group: systemic; systemic / in life observation / body weight / body weight
rat [22] = settings: Subchronic oral toxicity in rodents, fischer, Feed, dose end: 45 day, group: systemic
mouse [23] = settings: Subchronic oral toxicity in rodents, b6c3f1, Feed, dose end: 45 day, group: systemic, systemic / in life observation / mortality / mortality
rat [24] = settings: Carcinogenicity; fischer; Oral; Feed; dose end: 2 year; group: systemic; systemic / in life observation / body weight / body weight
[25] = systemic / pathology microscopic / kidney / hyperplasia + systemic / pathology microscopic / pancreas / hyperplasia
[26] = systemic / pathology microscopic / kidney / hyperplasia + systemic / pathology microscopic / pancreas / hyperplasia + systemic / pathology …
[27] = systemic / clinical chemistry / creatinine / creatinine + systemic / urinalysis / specific gravity/osmolality / specific gravity/osmolality…
[28] = systemic / in life observation / body weight / body weight gain + systemic / in life observation / body weight / body weight + systemic / …
[29] = group: offspring, systemic / in life observation / body weight / offspring (pup) weight
[30] = group: parental, systemic / in life observation / body weight / body weight + systemic / in life observation / food consumption / food consumption + systemic…
[31] = group: parental, systemic / in life observation / body weight / body weight + systemic / organ weight / kidney / relative to body weight + systemic / in life…
[32] = group: reproductive, reproductive / reproductive performance / reproductive performance other / NOS + reproductive / reproductive performance / estrous cycle / …
[33] = systemic / in life observation / body weight / body weight + systemic / in life observation / body weight / body weight gain
[34] = systemic / pathology microscopic / kidney / hyaline droplet
[35] = systemic / in life observation / body weight / body weight + systemic / pathology microscopic / lung / hyperplasia
[36] = systemic / pathology microscopic / lung / adenoma/carcinoma combined
[37] = systemic / pathology microscopic / kidney / hyperplasia + systemic / pathology microscopic / kidney / pigmentation
[38] = systemic / pathology microscopic / kidney / hyperplasia + systemic / pathology microscopic / kidney / pigmentation + systemic / pathology …
[39] = systemic / organ weight / kidney / absolute + systemic / organ weight / kidney / relative to body weight + systemic / organ weight / liver…
[40] = systemic / pathology microscopic / liver / adenoma + systemic / pathology microscopic / liver / adenoma/carcinoma combined + systemic / …
[41] = systemic / pathology microscopic / liver / adenoma/carcinoma combined + systemic / hematology / erythrocyte (rbc) count differential / …
[42] = systemic / in life observation / food consumption / food consumption + systemic / in life observation / water consumption / water …
[43] = systemic / in life observation / water consumption / water consumption
[44] = systemic / in life observation / body weight / body weight
[45] = systemic / organ weight / thymus / absolute + systemic / organ weight / thymus / relative to body weight + systemic / organ weight / thymus…
[46] = systemic / pathology microscopic / esophagus / hyperkeratosis + systemic / pathology microscopic / oral mucosa / [other] + systemic / …
[47] = systemic / in life observation / water consumption / water consumption + systemic / pathology gross / sperm measure / sperm motility
[48] = systemic / pathology gross / sperm measure / sperm motility
[49] = systemic / pathology gross / thyroid gland / enlarged + systemic / pathology microscopic / thyroid gland / cellular alteration
[50] = systemic / pathology gross / thyroid gland / enlarged + systemic / pathology microscopic / thyroid gland / cellular alteration + systemic / …
[51] = systemic / clinical chemistry / alanine aminotransferase (alt/sgpt) / alanine aminotransferase (alt/sgpt) + systemic / clinical chemistry / …
[52] = systemic / clinical chemistry / 5' nucleotidase / 5' nucleotidase + systemic / clinical chemistry / protein / protein + systemic / in life …
[53] = systemic / clinical chemistry / 5' nucleotidase / 5' nucleotidase + systemic / organ weight / liver / relative to body weight + systemic / …
[54] = systemic / clinical chemistry / alkaline phosphatase (alp/alk) / alkaline phosphatase (alp/alk) + systemic / clinical chemistry / calcium / …
[55] = systemic / in life observation / body weight / body weight + systemic / in life observation / mortality / mortality

OCC(CO)(CCBr)CCBr [2,2-Bis(bromoethyl)-1,3-propanediol]
LOAEL (rat [1]; [25]): 100 mg/kg/day | NOAEL (rat [1]; [25]): < 100 mg/kg/day | LEL (rat [1]; [26]): 100 mg/kg/day | NEL (rat [1]; [26]): < 100 mg/kg/day | LEL (rat [2]; [27]): 100 mg/kg/day | NEL (rat [2]; [27]): < 100 mg/kg/day | LOAEL (rat [2]; [28]): 400 mg/kg/day | NOAEL (rat [2]; [28]): 200 mg/kg/day

O=C(O)c1ccc([N+](=O)[O-])cc1 [4-Nitrobenzoic acid]
LEL (mouse [3]; [29]): 500 mg/kg/day | LOAEL (mouse [3]; [29]): > 2400 mg/kg/day | NEL (mouse [3]; [29]): < 500 mg/kg/day | NOAEL (mouse [3]; [29]): ≥ 2400 mg/kg/day | LEL (mouse [3]; [30]): 500 mg/kg/day | NEL (mouse [3]; [30]): < 500 mg/kg/day | LOAEL (mouse [3]; [31]): > 2400 mg/kg/day | NOAEL (mouse [3]; [31]): ≥ 2400 mg/kg/day | LOAEL (mouse [3]; [32]): > 2400 mg/kg/day | NEL (mouse [3]; [32]): 500 mg/kg/day | NOAEL (mouse [3]; [32]): ≥ 2400 mg/kg/day | LEL (mouse [3]; group: reproductive, reproductive / reproductive performance / reproductive performance other / NOS + reproductive / reproductive performance / gestational …): 1100 mg/kg/day | LEL (mouse [4]; [33]): 170 mg/kg/day | LOAEL (mouse [4]; [33]): 670 mg/kg/day | NEL (mouse [4]; [33]): < 170 mg/kg/day | NOAEL (mouse [4]; systemic / in life observation / body weight / body weight + systemic / in life observation / body weight / body weight gain + systemic / …): 330 mg/kg/day | LOAEL (rat [5]; systemic / in life observation / body weight / body weight gain + systemic / organ weight / spleen / relative to body weight + systemic / …): 310 mg/kg/day | LEL (rat [5]; [34]): 40 mg/kg/day | NEL (rat [5]; [34]): < 40 mg/kg/day | NOAEL (rat [5]; systemic / pathology microscopic / kidney / hyaline droplet + systemic / in life observation / body weight / body weight gain + systemic / …): 160 mg/kg/day | LOAEL (mouse [6]; [35]): > 675 mg/kg/day | NOAEL (mouse [6]; [35]): ≥ 675 mg/kg/day | LEL (mouse [6]; [36]): 170 mg/kg/day | NEL (mouse [6]; [36]): < 170 mg/kg/day | LEL (rat [7]; [37]): 50 mg/kg/day | NEL (rat [7]; [37]): < 50 mg/kg/day | LOAEL (rat [7]; [38]): 100 mg/kg/day | NOAEL (rat [7]; [38]): 50 mg/kg/day

N#Cc1cc(Br)c(O)c(Br)c1 [Bromoxynil]
LOAEL (mouse [8]; [39]): > 13.3 mg/kg/day | NOAEL (mouse [8]; [39]): ≥ 13.3 mg/kg/day | NEL (mouse [8]; systemic / pathology microscopic / liver / adenoma + systemic / pathology microscopic / liver / carcinoma + systemic / organ weight / liver…): 1.33 mg/kg/day | LEL (mouse [8]; systemic / pathology microscopic / liver / carcinoma + systemic / pathology microscopic / liver / hyperplasia): 4 mg/kg/day | LEL (dog [9]): 1.5 mg/kg/day | LOAEL (dog [9]): 1.5 mg/kg/day | NEL (dog [9]): 0.3 mg/kg/day | NOAEL (dog [9]): 0.3 mg/kg/day | LOAEL (mouse [10]; [40]): 12 mg/kg/day | NOAEL (mouse [10]; [40]): 3.1 mg/kg/day | LEL (mouse [10]; [41]): 3.1 mg/kg/day | NEL (mouse [10]; [41]): < 3.1 mg/kg/day

N#CC(Br)Br [Dibromoacetonitrile]
LOAEL (rat [11]; [42]): > 8.2 mg/kg/day | NEL (rat [11]; [42]): 1.4 mg/kg/day | NOAEL (rat [11]; [42]): ≥ 8.2 mg/kg/day | LEL (rat [11]; [43]): 3.3 mg/kg/day | LOAEL (mouse [12]; [44]): 11 mg/kg/day | NOAEL (mouse [12]; systemic / in life observation / body weight / body weight + systemic / pathology microscopic / stomach / squamous cell papilloma + systemic…): 6 mg/kg/day | LEL (mouse [12]; [43]): 3 mg/kg/day | NEL (mouse [12]; [43]): < 3 mg/kg/day | LEL (rat [13]; systemic / clinical chemistry / albumin / albumin): 23 mg/kg/day | NEL (rat [13]; systemic / clinical chemistry / albumin / albumin + systemic / clinical chemistry / globulins / globulins + systemic / clinical chemistry / …): 6 mg/kg/day | LOAEL (rat [13]; [45]): > 45 mg/kg/day | NOAEL (rat [13]; [45]): ≥ 45 mg/kg/day | LOAEL (rat [14]; systemic / pathology microscopic / esophagus / hyperkeratosis): 4 mg/kg/day | LEL (rat [14]; systemic / pathology microscopic / esophagus / hyperkeratosis + systemic / pathology microscopic / oral mucosa / [other] + systemic / in …): 4 mg/kg/day | NEL (rat [14]; [46]): 2 mg/kg/day | NOAEL (rat [14]; [46]): 2 mg/kg/day | LOAEL (mouse [15]; [47]): > 18 mg/kg/day | NOAEL (mouse [15]; [47]): ≥ 18 mg/kg/day | LEL (mouse [15]; [48]): 2 mg/kg/day | NEL (mouse [15]; [48]): < 2 mg/kg/day | LEL (rat [16]): 5.3 mg/kg/day | LOAEL (rat [16]): > 10.8 mg/kg/day | NEL (rat [16]): 1.9 mg/kg/day | NOAEL (rat [16]): ≥ 10.8 mg/kg/day | LEL (rat [17]; [49]): 0.005 mg/kg/day | NEL (rat [17]; [49]): < 0.005 mg/kg/day | LOAEL (rat [17]; [50]): > 5 mg/kg/day | NOAEL (rat [17]; [50]): ≥ 5 mg/kg/day | LOAEL (rat [18]; [51]): > 11 mg/kg/day | NEL (rat [18]; [51]): 2 mg/kg/day | NOAEL (rat [18]; [51]): ≥ 11 mg/kg/day | LEL (rat [18]; [48]): 3 mg/kg/day

N#CC(Cl)Cl [Dichloroacetonitrile]
LOAEL (rat [19]; [52]): > 65 mg/kg/day | NOAEL (rat [19]; [52]): ≥ 65 mg/kg/day | LEL (rat [19]; [53]): 8 mg/kg/day | NEL (rat [19]; [53]): < 8 mg/kg/day

O=[N+]([O-])[O-].[Ag+] [Silver nitrate]
LOAEL (dog [20]; [54]): 250 mg/kg/day | NEL (dog [20]; [54]): 10 mg/kg/day | NOAEL (dog [20]; [54]): 50 mg/kg/day | LEL (dog [20]; systemic / in life observation / clinical signs / headflicking + systemic / in life observation / clinical signs / salivation + systemic / …): 50 mg/kg/day

Cc1ccc(S(=O)(=O)NC(=O)NN2CCCCCC2)cc1 [Tolazamide]
LEL (mouse [21]): 750 mg/kg/day | LOAEL (mouse [21]): 750 mg/kg/day | NEL (mouse [21]): < 750 mg/kg/day | NOAEL (mouse [21]): < 750 mg/kg/day | LEL (rat [22]; [44]): 1000 mg/kg/day | LOAEL (rat [22]; [44]): 1000 mg/kg/day | NEL (rat [22]; [55]): 500 mg/kg/day | NOAEL (rat [22]; [55]): 500 mg/kg/day | LEL (mouse [23]): 3750 mg/kg/day | LOAEL (mouse [23]): > 7500 mg/kg/day | NEL (mouse [23]): 1800 mg/kg/day | NOAEL (mouse [23]): ≥ 7500 mg/kg/day | LEL (rat [24]): 250 mg/kg/day | LOAEL (rat [24]): > 500 mg/kg/day | NEL (rat [24]): < 250 mg/kg/day | NOAEL (rat [24]): ≥ 500 mg/kg/day
